The values below are quoted from earlier work in publication PMC12359172, “Cell and tissue reprogramming: Unlocking a new era in medical drug discovery” (Pharmacological Reviews, 2025).

The subject of data set [1] is human dermal fibroblasts / primary human cardiac fibroblasts. The note with it: for effect on cardiac fibroblast reprogramming: alongside MEF2C and TBX5 (MT), chemical screen of 2000 compounds, ref [472]; for reprogramming efficiency: HDF with GATA4, MEF2C, TBX5, MYOCD, NKX2-5, miR-1 and miR-133a plus small molecules, ref [468].
In a further data set the test system is Müller glia (MG). The note with it: NMDA-induced injury, intraperitoneal injection as printed; ref [333].
The subject of data set [2] is AMD iPSC-derived RPE cells. Details: method as in PMID 35056119, PMID 33918210. The note with it: ref [431],[432].
Data set [3] has as its system iPSC-derived cardiomyocytes (KCNQ1/TRPM4 mutation). The note with it: ref [413].
In data set [4] the test system is iPSC-derived cardiac organoid. On the set-up: method as in PMID 32284552. The note with it: ref [442].
The next data set has as its system YAP. On the set-up: method as in PMID 33888614. The note with it: ref [139].
For data set [5], the system named is SMA iPSC-derived motor neurons. Details: method as in PMID 19098894. The note with it: ref [391].
Details of data set [6]: method as in PMID 32392694, PMID 27490705. The note with it: ref [392],[393].
On the set-up of data set [7]: method as in PMID 10066283, PMID 9704384. The note with it: ref [843],[844].
The test system of data set [8] is skin fibroblasts from patients with ALS, HFFs, FAD fibroblasts. The note with it: human induced motor neuron model, chemical screen; ref [508].

As to `CCS(=O)(=O)N1CC(CC#N)(n2cc(-c3ncnc4[nH]ccc34)cn2)C1` [Baricitinib], the “effect on cardiac fibroblast reprogramming” value in data set [1] is “significantly improved reprogramming efficiency and promoted spontaneous contractile activity”.
`COCCOc1ccc(-c2cn(-c3ccccc3)c3nc[nH]c(=O)c23)cc1` [DMX-5804]: in the data set with Müller glia (MG), the “effect on Müller glia” value was “promoted MG proliferation and conversion to a retinal progenitor cell–like state”.
As for `CN(C)C(=N)N=C(N)N` [Metformin], the “effect on mitochondrial function” value in [2] is “improved mitochondrial function”.
In the case of `COc1ccc(CCN(C)CCCC(C#N)(c2ccc(OC)c(OC)c2)C(C)C)cc1OC` (stereo not shown) [verapamil], the drug screening outcome in [3] was “potential treatment”.
With `CC(C)(C)c1nc2c3cc[nH]c(=O)c3c3cc(F)ccc3c2[nH]1` [JAK1 inhibitor (EMD4Biosciences; 420099)], the reprogramming efficiency in [1] was below 25%.
With `NC(=O)c1ccc(-c2nc(-c3ccc4c(c3)OCO4)c(-c3ccccn3)[nH]2)cc1` [SB431542], the “effect on cardiac fibroblast reprogramming” value in data set [1] is “significantly improved reprogramming efficiency and promoted spontaneous contractile activity”.
As to `Oc1nc(-c2ccc(C(F)(F)F)cc2)nc2c1CSCC2` [Xav939], in data set [1] (MST cocktail (MYOCD, SMAD6, TBX20) combined with FGF2 and XAV939, primary human cardiac fibroblasts, ref [536]), the iCM function result was “spontaneous contractions and calcium transients”.
In the case of `COc1cccc2c1C(=O)c1c(O)c3c(c(O)c1C2=O)C[C@@](O)(C(=O)CO)C[C@@H]3O[C@H]1C[C@H](N)[C@H](O)[C@H](C)O1` [doxorubicin], the “cardiotoxicity detected by model” value in data set [4] is given as “cardiotoxic effects”.
For the molecule `NC(=O)c1ncn([C@@H]2O[C@H](COP(=O)(O)O)[C@@H](O)[C@H]2O)c1N` [5-aminoimidazole-4-carboxamide ribonucleotide], the “effect on mitochondrial function” value in data set [2] is on record as “improved mitochondrial function”.
Turning to verteporfin, in the data set with YAP, the fibroblast-mediated regeneration result is “enhance fibroblast-mediated regeneration, improving mechanical strength and reducing scarring”.
With `Cc1c[nH]c(-c2cnc(NCCNc3ccc(C#N)cn3)nc2-c2ccc(Cl)cc2Cl)n1` [CHIR99021], the reprogramming efficiency in data set [1] is below 25%.
`CCCC(CCC)C(=O)O` [VPA, valproic acid]: the drug screening outcome in data set [5] is “potential treatments”. Also, the clinical trial outcome in data set [6] was “failed in clinical trials”.
As for `O=c1[nH]c(=O)n([C@H]2C[C@H](O)[C@@H](CO)O2)cc1Br` [BrdU, bromodeoxyuridine], the developmental toxicity entry in data set [7] is “dose-dependent genetic and neurologic developmental defects”.
Consider `NC[C@H]1O[C@H](O[C@H]2[C@H](O)[C@@H](O[C@H]3O[C@H](CO)[C@@H](O)[C@H](N)[C@H]3O)[C@H](N)C[C@@H]2N)[C@H](N)C[C@@H]1O` [tobramycin], for which the drug screening outcome in data set [5] is recorded as “potential treatments”.
For `O=C1Cc2c([nH]c3ccc(Br)cc23)-c2ccccc2N1` [Kenpaullone], in data set [8], the “rescue of ALS-specific disease characteristics” value is “rescuing ALS-specific disease characteristics, including restoring electrophysiological activity and the ability to form NMJs”.
